Experimental findings from patent publication US20210255193A1, “LYSINE REACTIVE PROBES AND USES THEREOF” (The Scripps Research Institute, priority 2017, published 2021) are described below.

Holding throughout (test): competitive isoTOP-ABPP
Common to all, as to type: binding

The target of assay [1] is T1, EIF3G Eukaryotic translation initiation factor 3 subunit (Homo sapiens, UniProt O75821).
T1 construct: isoTOP-ABPP experiments performed in cell lysates (in vitro); endogenous in cells; host or cells: MDA-MB-231 soluble lysate
The settings on record: for R value (DMSO/fragment) for probe 1 labeling: O75821_K280; for R value (DMSO/fragment) for probe 1 labeling / isoTOP-ABPP reactivity ratio at lysine O75821_K280: 231 sol; for isoTOP-ABPP ratio, lysine O75821_K280: 50 uM_231_sol_in vitro. An outline of the steps:
(§1)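 Readout: isotopic light/heavy MS1 peak-area ratio (R, DMSO heavy over compound light), median across peptides sharing a modified lysine. Lysate received fragment (activated esters 50 μM, guanidinylating agents 100 μM final) or DMSO, then 0.1 mM STP-alkyne probe for 1 h at ambient temperature.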

The target of another assay is T2, SNX8 Sorting nexin-8 (Homo sapiens, UniProt Q9Y5X2).
T2 construct: endogenous in cells; host or cells: MDA-MB-231 lysate
T2 sequence (Q9Y5X2 1-465): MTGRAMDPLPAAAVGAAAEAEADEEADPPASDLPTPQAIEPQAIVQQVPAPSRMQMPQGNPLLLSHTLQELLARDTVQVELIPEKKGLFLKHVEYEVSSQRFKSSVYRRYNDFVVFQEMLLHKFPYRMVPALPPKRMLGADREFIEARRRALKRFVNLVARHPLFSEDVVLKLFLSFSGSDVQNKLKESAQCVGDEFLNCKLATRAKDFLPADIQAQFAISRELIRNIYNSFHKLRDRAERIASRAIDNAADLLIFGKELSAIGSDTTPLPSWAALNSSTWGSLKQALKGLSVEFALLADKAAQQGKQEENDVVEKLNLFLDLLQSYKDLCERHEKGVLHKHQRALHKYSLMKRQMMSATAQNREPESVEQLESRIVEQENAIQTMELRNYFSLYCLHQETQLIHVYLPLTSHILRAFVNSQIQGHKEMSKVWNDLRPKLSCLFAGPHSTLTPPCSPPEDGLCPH
The settings on record: for isoTOP-ABPP reactivity ratio at lysine Q9Y5X2_K316 / isoTOP-ABPP ratio (R) at liganded lysine Q9Y5X2_K316: 50 uM, in vitro; for isoTOP-ABPP reactivity ratio at lysine Q9Y5X2_K316: 231 sol; for isoTOP-ABPP ratio (R) at liganded lysine Q9Y5X2_K316: sol, 231; for isoTOP-ABPP ratio, lysine Q9Y5X2_K316: 50 uM_231_sol_in vitro. An outline of the steps: as §1

The target in assay [2] is T3, MTHFD1 C-1-tetrahydrofolate synthase, cytoplasmic (Homo sapiens, UniProt P11586).
T3 construct: isoTOP-ABPP experiments performed in cell lysates (in vitro); endogenous in cells; host or cells: MDA-MB-231 soluble lysate
T3 sequence (P11586 1-935): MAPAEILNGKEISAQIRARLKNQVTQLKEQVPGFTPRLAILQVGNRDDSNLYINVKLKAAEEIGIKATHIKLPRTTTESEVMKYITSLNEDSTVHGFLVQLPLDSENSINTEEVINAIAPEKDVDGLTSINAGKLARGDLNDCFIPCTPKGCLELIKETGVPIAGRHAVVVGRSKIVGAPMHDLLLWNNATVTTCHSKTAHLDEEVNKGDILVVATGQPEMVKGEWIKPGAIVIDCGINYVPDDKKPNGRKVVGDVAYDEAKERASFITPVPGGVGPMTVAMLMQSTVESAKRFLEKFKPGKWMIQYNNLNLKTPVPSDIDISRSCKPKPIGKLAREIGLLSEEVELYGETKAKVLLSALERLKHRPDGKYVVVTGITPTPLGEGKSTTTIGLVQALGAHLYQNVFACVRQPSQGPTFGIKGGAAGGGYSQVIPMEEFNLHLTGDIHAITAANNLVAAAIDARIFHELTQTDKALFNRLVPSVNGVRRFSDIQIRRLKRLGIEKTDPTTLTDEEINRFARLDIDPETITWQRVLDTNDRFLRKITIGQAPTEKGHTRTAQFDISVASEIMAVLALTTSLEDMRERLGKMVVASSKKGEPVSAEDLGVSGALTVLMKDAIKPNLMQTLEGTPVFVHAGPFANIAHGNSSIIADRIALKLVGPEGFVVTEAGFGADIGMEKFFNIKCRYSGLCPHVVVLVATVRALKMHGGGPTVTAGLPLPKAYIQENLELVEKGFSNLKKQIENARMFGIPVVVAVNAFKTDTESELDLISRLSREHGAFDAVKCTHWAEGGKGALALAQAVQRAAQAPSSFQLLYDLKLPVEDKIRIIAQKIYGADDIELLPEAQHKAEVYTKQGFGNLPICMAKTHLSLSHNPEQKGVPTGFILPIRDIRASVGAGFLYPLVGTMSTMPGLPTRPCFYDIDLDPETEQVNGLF
The settings on record: for isoTOP-ABPP reactivity ratio at lysine P11586_K760 / isoTOP-ABPP ratio (R) at liganded lysine P11586_K760: 50 uM, in vitro; for isoTOP-ABPP reactivity ratio at lysine P11586_K760: 231 sol; for isoTOP-ABPP ratio (R) at liganded lysine P11586_K760: sol, 231. An outline of the steps: as §1

T1 sequence (O75821 whole entry): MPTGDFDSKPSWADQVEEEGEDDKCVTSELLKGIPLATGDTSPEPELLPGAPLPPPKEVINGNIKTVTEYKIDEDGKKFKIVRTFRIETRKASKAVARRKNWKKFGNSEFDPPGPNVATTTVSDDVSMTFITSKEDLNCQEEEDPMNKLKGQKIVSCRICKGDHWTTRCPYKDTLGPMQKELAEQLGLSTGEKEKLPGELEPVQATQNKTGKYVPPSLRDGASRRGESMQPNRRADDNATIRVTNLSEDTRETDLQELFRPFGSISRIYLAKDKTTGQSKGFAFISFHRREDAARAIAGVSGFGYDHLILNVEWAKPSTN

For `O=C(Oc1c(F)c(F)c(F)c(F)c1F)C(c1ccccc1)c1ccccc1` [fragment 20, Pentafluorophenyl 2,2-diphenylacetate], the “R value (DMSO/fragment) for probe 1 labeling” value (“R value (DMSO/fragment)” for short) in assay [1] (50 uM, in vitro) was 0.9.

Regarding `O=C(Oc1c(F)c(F)c(F)c(F)c1F)c1cc(C(F)(F)F)cc(C(F)(F)F)c1` [fragment 21, Pentafluorophenyl 3,5-bis(trifluoromethyl)benzoate], the “R value (DMSO/fragment)” value in assay [1] (50 uM, in vitro) is 1.7.

With `Cn1cc(CC(=O)Oc2c(F)c(F)c(F)c(F)c2F)c2ccccc21` [fragment 22, Pentafluorophenyl 2-(1-methyl-1H-indol-3-yl)acetate], the “R value (DMSO/fragment)” value in assay [1] (50 uM, in vitro) is 0.6.

Take `O=C(CCc1cn(-c2ccccc2)nc1-c1ccccc1)Oc1ccc([N+](=O)[O-])cc1[N+](=O)[O-]` [fragment 29, 2,4-Dinitrophenyl 3-(1,3-diphenyl-1H-pyrazol-4-yl)propanoate]: the “isoTOP-ABPP reactivity ratio at lysine Q9Y5X2_K316” value at SNX8 Sorting nexin-8 is 3.4. Further, the “isoTOP-ABPP reactivity ratio at lysine O75821_K280” value in assay [1] (50 uM, in vitro) is given as 5.3.

Consider `O=C(Oc1ccc([N+](=O)[O-])cc1[N+](=O)[O-])C(c1ccccc1)c1ccccc1` [fragment 30, 2,4-Dinitrophenyl 2,2-diphenylacetate], for which the “isoTOP-ABPP reactivity ratio at lysine O75821_K280” value in assay [1] (50 uM, in vitro) was found to be 1.0. Further, the “isoTOP-ABPP reactivity ratio at lysine P11586_K760” value in assay [2] turned out to be 0.9.

Turning to `O=C(Oc1ccc([N+](=O)[O-])cc1[N+](=O)[O-])c1cc(C(F)(F)F)cc(C(F)(F)F)c1` [fragment 31, 2,4-Dinitrophenyl 3,5-bis(trifluoromethyl)benzoate], in assay [2], the “isoTOP-ABPP reactivity ratio at lysine P11586_K760” value was determined as 0.8.

As for `Cn1cc(CC(=O)Oc2ccc([N+](=O)[O-])cc2[N+](=O)[O-])c2ccccc21` [fragment 32, 2,4-Dinitrophenyl 2-(1-methyl-1H-indol-3-yl)acetate], in assay [2], the “isoTOP-ABPP reactivity ratio at lysine P11586_K760” value worked out at 0.6.

`COc1cc(CCC(=O)Oc2ccc([N+](=O)[O-])cc2[N+](=O)[O-])cc(OC)c1OC` [fragment 33, 2,4-Dinitrophenyl 3-(3,4,5-trimethoxyphenyl)propanoate]: at SNX8 Sorting nexin-8, the “isoTOP-ABPP reactivity ratio at lysine Q9Y5X2_K316” value worked out at 4.1.

For `O=C(Oc1ccc([N+](=O)[O-])cc1[N+](=O)[O-])c1ccc2ccccc2n1` [fragment 35, 2,4-Dinitrophenyl quinoline-2-carboxylate], the “isoTOP-ABPP ratio (R) at liganded lysine O75821_K280” value in assay [1] (50 uM, in vitro, sol, 231) is recorded as 1.0.

With `O=C(CCc1coc2cc(F)ccc2c1=O)Oc1ccc([N+](=O)[O-])cc1[N+](=O)[O-]` [fragment 36, 2,4-Dinitrophenyl 3-(7-fluoro-4-oxo-4H-chromen-3-yl)propanoate], the “isoTOP-ABPP ratio (R) at liganded lysine Q9Y5X2_K316” value on SNX8 Sorting nexin-8 is 3.6.

Regarding `O=C(CC12CC3CC(CC(C3)C1)C2)Oc1ccc([N+](=O)[O-])cc1[N+](=O)[O-]` [fragment 38, 2,4-Dinitrophenyl 2-(adamantan-1-yl)acetate], in assay [2], the “isoTOP-ABPP ratio (R) at liganded lysine P11586_K760” value is 1.3.

`O=C(Oc1ccc([N+](=O)[O-])cc1[N+](=O)[O-])c1ccc(Oc2ccccc2)cc1` [fragment 39, 2,4-Dinitrophenyl 4-phenoxybenzoate]: the “isoTOP-ABPP ratio (R) at liganded lysine Q9Y5X2_K316” value on SNX8 Sorting nexin-8 was 1.4.

Regarding `O=C(Oc1ccc([N+](=O)[O-])cc1[N+](=O)[O-])c1ccccc1Nc1cccc(C(F)(F)F)c1` [fragment 40, 2,4-Dinitrophenyl 2-((3-(trifluoromethyl)phenyl)amino)benzoate], the “isoTOP-ABPP ratio (R) at liganded lysine Q9Y5X2_K316” value at SNX8 Sorting nexin-8 amounted to 2.0.

`CC(C)(C)OC(=O)NCCCC(=O)Oc1ccc([N+](=O)[O-])cc1[N+](=O)[O-]` [fragment 41, 2,4-Dinitrophenyl 4-((tert-butoxycarbonyl)amino)butanoate]: the “isoTOP-ABPP ratio (R) at liganded lysine P11586_K760” value in assay [2] came out at 4.2.

In the case of `N#Cc1ccc(C(=O)Oc2ccc([N+](=O)[O-])cc2[N+](=O)[O-])cc1` [fragment 44, 2,4-Dinitrophenyl 4-cyanobenzoate], in assay [1], the “isoTOP-ABPP ratio, lysine O75821_K280” value came out at 0.9.

As to `O=C(CCc1ccc2c(c1)OCO2)Oc1ccc([N+](=O)[O-])cc1[N+](=O)[O-]` [fragment 45, 2,4-Dinitrophenyl 3-(benzo[d][1,3]dioxol-5-yl)propanoate], the “isoTOP-ABPP ratio, lysine O75821_K280” value in assay [1] is on record as 0.9.

`O=C(ON1C(=O)CCC1=O)c1cc(C(F)(F)F)cc(C(F)(F)F)c1` [fragment 46, 3,5-Bis(trifluoromethyl)benzoic acid NHS ester]: the “isoTOP-ABPP ratio, lysine Q9Y5X2_K316” value on SNX8 Sorting nexin-8 was found to be 2.7. Moreover, the “isoTOP-ABPP ratio, lysine O75821_K280” value in assay [1] came out at 0.8.

Regarding `CC(C)(C)OC(=O)N=C(NC(=O)OC(C)(C)C)n1cccn1` [fragment 50, reference compound], the “isoTOP-ABPP ratio, lysine P11586_K760” value in assay [2] (100 uM_231_sol_in vitro) is reported as 0.6.

Consider `NC(=O)c1cc(C(F)(F)F)cc(C(F)(F)F)c1` [fragment 51, reference compound], for which, at SNX8 Sorting nexin-8, the “isoTOP-ABPP ratio, lysine Q9Y5X2_K316” value is listed as 1.2.
